Assay results: patent US20240366739A1, “MEDICAMENT FOR TREATMENT AND/OR PREVENTION OF CANCER” (TORAY INDUSTRIES, INC., priority 2021, published 2024)

Test system: mouse lymphoma cell line EG7 (OVA-expressing cancer cells) subcutaneously transplanted
Assay: in vivo antitumor effect in cancer-bearing mice (tumor volume measured with calipers)
Conditions: Example 6; C57BL/6NCR mice with EG7 tumors; particle 0.5 mg s.c. once a week x2 from day 7; Poly(I:C) 50 μg into tumors twice a week x4; mixture given s.c.

Substance: Poly(I:C)
- tumor growth / regression (tumor volume): not changed compared to negative controls
